Data: PubChem BioAssay (NCI)
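Values below derive from 48-hour exposures of cells grown in 96-well plates, with endpoints linearly interpolated between the two concentrations bracketing the appropriate inhibition level. Here, GI50 denotes the concentration required for 50% inhibition of growth. TGI is the concentration that stops growth completely.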

Columns and labels:
Experiment in all cases: NCI-60 cell line screen, 48 h
A549 NSCLC = system: A549 NSCLC
SR leukemia = system: SR leukemia
SNB-75 CNS = system: SNB-75 CNS
EKVX NSCLC = system: EKVX NSCLC
SF-268 CNS = system: SF-268 CNS
PC-3 prostate = system: PC-3 prostate
CAKI-1 renal = system: CAKI-1 renal
MDA-MB-231 breast = system: MDA-MB-231 breast
LOX IMVI melanoma = system: LOX IMVI melanoma
K-562 leukemia = system: K-562 leukemia
MCF7 breast = system: MCF7 breast
SF-539 CNS = system: SF-539 CNS
KM12 colon = system: KM12 colon
RXF 393 renal = system: RXF 393 renal
OVCAR-4 ovarian = system: OVCAR-4 ovarian
DU-145 prostate = system: DU-145 prostate
OVCAR-3 ovarian = system: OVCAR-3 ovarian
HCC-2998 colon = system: HCC-2998 colon
COLO 205 colon = system: COLO 205 colon
SW-620 colon = system: SW-620 colon
SNB-19 CNS = system: SNB-19 CNS
NCI/ADR-RES ovarian = system: NCI/ADR-RES ovarian
ACHN renal = system: ACHN renal
T-47D breast = system: T-47D breast
OVCAR-5 ovarian = system: OVCAR-5 ovarian
U251 CNS = system: U251 CNS
HCT-15 colon = system: HCT-15 colon
NCI-H522 lung = system: NCI-H522 lung
A498 renal = system: A498 renal
HS 578T breast = system: HS 578T breast
786-0 renal = system: 786-0 renal
M14 melanoma = system: M14 melanoma
RPMI-8226 leukemia = system: RPMI-8226 leukemia
UACC-62 melanoma = system: UACC-62 melanoma
HCT-116 colon = system: HCT-116 colon
BT-549 breast = system: BT-549 breast
SK-MEL-28 melanoma = system: SK-MEL-28 melanoma
OVCAR-8 ovarian = system: OVCAR-8 ovarian
SK-MEL-2 melanoma = system: SK-MEL-2 melanoma
HL-60(TB) leukemia = system: HL-60(TB) leukemia
NCI-H226 lung = system: NCI-H226 lung
TK-10 renal = system: TK-10 renal
MDA-MB-435 = system: MDA-MB-435
SF-295 CNS = system: SF-295 CNS
SK-MEL-5 melanoma = system: SK-MEL-5 melanoma
NCI-H460 lung = system: NCI-H460 lung
UACC-257 melanoma = system: UACC-257 melanoma
UO-31 renal = system: UO-31 renal
HOP-62 NSCLC = system: HOP-62 NSCLC
NCI-H23 lung = system: NCI-H23 lung
HOP-92 NSCLC = system: HOP-92 NSCLC
IGROV1 ovarian = system: IGROV1 ovarian
HT29 colon = system: HT29 colon
SN12C renal = system: SN12C renal
MOLT-4 leukemia = system: MOLT-4 leukemia
SK-OV-3 ovarian = system: SK-OV-3 ovarian
CCRF-CEM leukemia = system: CCRF-CEM leukemia

Work on `O=C(Nc1ccc(-n2cc(-c3ccncc3)c(-c3ccc(Cl)c(O)c3)n2)cc1)c1cc(C(F)(F)F)cc(C(F)(F)F)c1` yielded a GI50 (A549 NSCLC) of 5.43 µM, a TGI (A549 NSCLC) of 22 µM and a GI50 (SR leukemia) of 9.51 µM. The TGI (SR leukemia) was over 100 µM, the GI50 (SNB-75 CNS) was 2.82 µM and the TGI (SNB-75 CNS) was 28.2 µM. For the same compound, the GI50 (EKVX NSCLC) was 22 µM, the TGI (EKVX NSCLC) was over 100 µM and the GI50 (SF-268 CNS) was 7.39 µM. The TGI (SF-268 CNS) was 51.6 µM, the GI50 (PC-3 prostate) was 3.29 µM and the TGI (PC-3 prostate) was 28.5 µM. It also gave a GI50 (CAKI-1 renal) of 7.48 µM, a TGI (CAKI-1 renal) of 42.9 µM and a GI50 (MDA-MB-231 breast) of 3.29 µM. For the same compound, the TGI (MDA-MB-231 breast) was 21.6 µM, the GI50 (LOX IMVI melanoma) was 2.54 µM and the TGI (LOX IMVI melanoma) was 10.4 µM. For the same compound, the GI50 (K-562 leukemia) was 4.97 µM, the TGI (K-562 leukemia) was 88 µM and the GI50 (MCF7 breast) was 3.53 µM. For the same compound, the TGI (MCF7 breast) was 13.8 µM, the GI50 (SF-539 CNS) was 2.95 µM and the TGI (SF-539 CNS) was 13.8 µM. The GI50 (KM12 colon) was 4.01 µM, the TGI (KM12 colon) was 16.2 µM and the GI50 (RXF 393 renal) was 1.32 µM. It also gave a TGI (RXF 393 renal) of 3.1 µM, a GI50 (OVCAR-4 ovarian) of 11.2 µM and a TGI (OVCAR-4 ovarian) of 54.6 µM. For the same compound, the GI50 (DU-145 prostate) was 12.3 µM, the TGI (DU-145 prostate) was 54.7 µM and the GI50 (OVCAR-3 ovarian) was 3.44 µM. The TGI (OVCAR-3 ovarian) was 12.2 µM, the GI50 (HCC-2998 colon) was over 100 µM and the TGI (HCC-2998 colon) was over 100 µM. For the same compound, the GI50 (COLO 205 colon) was 3.17 µM, the TGI (COLO 205 colon) was 14 µM and the GI50 (SW-620 colon) was 5.4 µM. For the same compound, the TGI (SW-620 colon) was 35.6 µM, the GI50 (SNB-19 CNS) was 8.79 µM and the TGI (SNB-19 CNS) was over 100 µM. It also gave a GI50 (NCI/ADR-RES ovarian) of 6.91 µM, a TGI (NCI/ADR-RES ovarian) of over 100 µM and a GI50 (ACHN renal) of 6.47 µM. For the same compound, the TGI (ACHN renal) was 31.1 µM, the GI50 (T-47D breast) was 2.16 µM and the TGI (T-47D breast) was 9.35 µM. It also gave a GI50 (OVCAR-5 ovarian) of 21.4 µM, a TGI (OVCAR-5 ovarian) of over 100 µM and a GI50 (U251 CNS) of 4.91 µM. The TGI (U251 CNS) was 22 µM, the GI50 (HCT-15 colon) was 3.65 µM and the TGI (HCT-15 colon) was over 100 µM. The GI50 (NCI-H522 lung) was 14 µM, the TGI (NCI-H522 lung) was 57.7 µM and the GI50 (A498 renal) was 14.8 µM. The TGI (A498 renal) was 35 µM, the GI50 (HS 578T breast) was 5.32 µM and the TGI (HS 578T breast) was over 100 µM. For the same compound, the GI50 (786-0 renal) was 3.78 µM, the TGI (786-0 renal) was 13.6 µM and the GI50 (M14 melanoma) was 6.34 µM. For the same compound, the TGI (M14 melanoma) was 89.2 µM, the GI50 (RPMI-8226 leukemia) was 3.86 µM and the TGI (RPMI-8226 leukemia) was over 100 µM. For the same compound, the GI50 (UACC-62 melanoma) was 14.4 µM, the TGI (UACC-62 melanoma) was over 100 µM and the GI50 (HCT-116 colon) was 4.72 µM. The TGI (HCT-116 colon) was 17.5 µM, the GI50 (BT-549 breast) was 13.3 µM and the TGI (BT-549 breast) was 91.2 µM. The GI50 (SK-MEL-28 melanoma) was 4.88 µM, the TGI (SK-MEL-28 melanoma) was 20 µM and the GI50 (OVCAR-8 ovarian) was 6.54 µM. The TGI (OVCAR-8 ovarian) was 34.8 µM, the GI50 (SK-MEL-2 melanoma) was 6.61 µM and the TGI (SK-MEL-2 melanoma) was 31.7 µM. It also gave a GI50 (HL-60(TB) leukemia) of over 100 µM, a TGI (HL-60(TB) leukemia) of over 100 µM and a GI50 (NCI-H226 lung) of 3.63 µM. It also gave a TGI (NCI-H226 lung) of 18.8 µM, a GI50 (TK-10 renal) of 7.55 µM and a TGI (TK-10 renal) of 23 µM. The GI50 (MDA-MB-435) was 4.11 µM, the TGI (MDA-MB-435) was 80.5 µM and the GI50 (SF-295 CNS) was 3.31 µM. The TGI (SF-295 CNS) was 18.1 µM, the GI50 (SK-MEL-5 melanoma) was 1.55 µM and the TGI (SK-MEL-5 melanoma) was 3.63 µM. For the same compound, the GI50 (NCI-H460 lung) was 3.82 µM, the TGI (NCI-H460 lung) was 14 µM and the GI50 (UACC-257 melanoma) was 8.95 µM. For the same compound, the TGI (UACC-257 melanoma) was over 100 µM, the GI50 (UO-31 renal) was 2.8 µM and the TGI (UO-31 renal) was 13.5 µM. For the same compound, the GI50 (HOP-62 NSCLC) was 2.11 µM, the TGI (HOP-62 NSCLC) was 5.58 µM and the GI50 (NCI-H23 lung) was 6.09 µM. It also gave a TGI (NCI-H23 lung) of 29.5 µM, a GI50 (HOP-92 NSCLC) of 3.89 µM and a TGI (HOP-92 NSCLC) of 26.2 µM. For the same compound, the GI50 (IGROV1 ovarian) was 11.5 µM, the TGI (IGROV1 ovarian) was 34.5 µM and the GI50 (HT29 colon) was 3.43 µM. For the same compound, the TGI (HT29 colon) was 28.9 µM, the GI50 (SN12C renal) was 7.14 µM and the TGI (SN12C renal) was 89.9 µM. The GI50 (MOLT-4 leukemia) was 8.87 µM, the TGI (MOLT-4 leukemia) was over 100 µM and the GI50 (SK-OV-3 ovarian) was 2.01 µM. The TGI (SK-OV-3 ovarian) was 6.98 µM, the GI50 (CCRF-CEM leukemia) was 4.87 µM and the TGI (CCRF-CEM leukemia) was over 100 µM.
